One may read the solubility as the concentration that dissolves in the medium under given conditions. A lower solubility goes with a poorly soluble substance.

Consider eight compounds from patent US7141676B1, “Water soluble multi-biotin-containing compounds” (University of Washington, priority 1996, dated 2006).

One data set addresses T1, streptavidin (Streptomyces avidinii, UniProt P22629).
T1 construct: purchased Pierce
Briefly: Streptavidin cross-linking with biotin compounds on streptavidin coated polystyrene plate using 125I labeled streptavidin (Example 7). It counts as binding. The settings on record: 100 pmol biotin compound, 25 pmol 125I streptavidin per well, up to 4 alternating additions. The text has this:
This experiment was designed to test streptavidin cross-linking with biotin monomer, biotin dimers comprising water-soluble linkers, and biotin moiety trimers comprising water-soluble linkers. Each of the biotin dimers and trimers used experimentally was water-soluble. […] The biotin dimers used herein are structures 28, 29, and 30. The trimers used herein are structures 23 (page 26), 24 (page 26), and 31. The biotin monomer used herein is the N-[13-(p-iodobenzamido)4,7,10-trioxatridacanyl]biotinamide.
A Reacti-Bind Streptavidin Coated Polystyrene Strip Place (Pierce) was washed with 100 mM PBS prior to use. To lane one (12-wells) was added 100 μL PBS. To lanes 2–7 were added 100 pmol of biotin dimer or biotin trimer to be tested in 100 μL PBS. Lane 8 was treated in the same manner with 100 pmol of biotin monomer. The plate then was incubated at 37° C. with shaking for 10 minutes. All the wells then were emptied and rinsed with 100 μL PBS. The PBS was removed and 25 pmol of ^125I labeled streptavidin (specific activity of 1 μCi/ug) in 100 μL PBS was added to each well. […]
The first 9 wells in each lane were then filled with 100 μL PBS and the remaining 3 wells in each lane were filled with 100 μL of their respective dimer or trimer. […] The amount of activity remaining in each well was determined as a percentage of the highest initial streptavidin binding.

The conditions of data set [1]: neutral pH and ambient temperature; cited from earlier work.
Data set [2] is described as follows: Water solubility (dissolve in water, stand about 24 hours, centrifuge, HPLC of aqueous layer). It counts as physicochemical. Conditions: pH 7, water, thermodynamic from solid, neutral pH and ambient temperature. An excerpt:
The solubility of biotin moieties in aqueous media is enhanced according to the present invention by attaching a water-soluble linker moiety, typically through the carboxylate group of the biotin. Water-soluble linker moieties, L, according to the present invention, compromise any linker moiety that, when conjugated or coupled (e.g., covalently bonded) to a biotin moiety and the cross-linker, C, increases the water solubility of the biotin-containing compound. […] Dissolving the compound in water, stirring the solution, and allowing the solution to stand at room temperature for about 24 hours determines solubility. The solution then is centrifuged and the resultant aqueous layer analyzed using high performance liquid chromatography (“HPLC”). The HPLC analysis is conducted with a gradient using acetonitrile or methanol and water as the solvent mixture on a reversed-phase column.

T1 sequence (P22629 25-183, species assumed): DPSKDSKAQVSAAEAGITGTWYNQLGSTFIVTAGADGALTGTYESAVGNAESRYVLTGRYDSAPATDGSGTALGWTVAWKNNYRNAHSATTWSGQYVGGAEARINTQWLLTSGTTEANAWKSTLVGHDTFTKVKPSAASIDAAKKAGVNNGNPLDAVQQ

`O=C(CCCC[C@@H]1SC[C@@H]2NC(=O)N[C@@H]21)NCCCOCCOCCOCCCNC(=O)c1ccc(I)cc1` [biotin monomer, N-[13-(p-iodobenzamido)4,7,10-trioxatridacanyl]biotinamide]: the “streptavidin binding as a function of sequential biotin compound additions (FIG. 1)” value on streptavidin is listed as “Neither the biotin monomer nor any of the biotin dimers tested demonstrated appreciable increases in streptavidin binding”.
For the compound `O=C(O)CCCC[C@@H]1SC[C@@H]2NC(=O)N[C@@H]21` [biotin], the solubility in water result in data set [1] is reported as “approximately 0.2 mg/mL”.
For the compound `O=C(CCCCC1SCC2NC(=O)NC21)NCCCOCCOCCOCCCNC(=O)c1cc(C(=O)NCCCOCCOCCOCCCNC(=O)CCCCC2SCC3NC(=O)NC32)cc(C(=O)NCCCOCCOCCOCCCNC(=O)CCCCC2SCC3NC(=O)NC32)c1` (centres unmarked) [structure 23], the solubility in data set [2] was > 200 µg/mL.
The same measure, in the same setting: to `O=C(CCCCC1SCC2NC(=O)NC21)NCCCOCCOCCOCCNC(=O)c1cc(C(=O)NCCOCCOCCNC(=O)CCCCC2SCC3NC(=O)NC32)cc(C(=O)NCCOCCOCCNC(=O)CCCCC2SCC3NC(=O)NC32)c1` (centres unmarked) [structure 24] belongs > 200 µg/mL.
Still for that read-out and setting: for `O=C(CCCCC1SCC2NC(=O)NC21)NCCOCCONC(=O)CCCCC1SCC2NC(=O)NC21` (centres unmarked) [structure 28] the value was > 200 µg/mL.
Still for that read-out and setting: for `O=C(CCCCC1SCC2NC(=O)NC21)NCCCOCCOCCOCCCNC(=O)CCCCC1SCC2NC(=O)NC21` (centres unmarked) [structure 29] the value was > 200 µg/mL; for `CC(CC(=O)NCCCOCCOCCOCCCNC(=O)CC(C)NC(=O)CCCCC1SCC2NC(=O)NC21)NC(=O)CCCCC1SCC2NC(=O)NC21` (centres unmarked) [structure 30], > 200 µg/mL.
Consider `CC(CC(=O)NCCCOCCOCCOCCCNC(=O)c1cc(C(=O)NCCCOCCOCCOCCCNC(=O)CC(C)NC(=O)CCCCC2SCC3NC(=O)NC32)cc(C(=O)NCCCOCCOCCOCCCNC(=O)CC(C)NC(=O)CCCCC2SCC3NC(=O)NC32)c1)NC(=O)CCCCC1SCC2NC(=O)NC21` (centres unmarked) [structure 31], for which the solubility in data set [2] is > 200 µg/mL.
